# According to patent publication US20230121313A1 (priority 2019, published 2023):
# Where two headings read alike, the source gives them in different places. Marks after values point to notes of the source that are not given here.
# Tests used:
# [1] = for QC sample long-term storage stability: human plasma QC sample at −20° C.; for QC sample bench-top stability: human plasma QC sample; for QC sample bench-top stability / Processed sample stability: room temperature; for Stock solution stability (spike solutions): ketamine/norketamine spike solutions at −20° C.; for Whole Blood Stability: room temperature and in an ice-water bath (0-4° C.)
# Experimental: This example provides an LC-MS/MS method for the determination of ketamine and norketamine in sodium heparin human plasma using ketamine-d4 and norketamine-d4 as the respective internal standards (IS).
# Retention time and peak area were determined by Analyst® Data Acquisition/Processing Software (Version 1.4.2). Analyte concentrations were obtained from a calibration curve constructed by plotting the peak area ratio versus the concentration using Watson LIMS (Version 7.3). Watson LIMS and Microsoft Office Excel were used for statistical calculations. When Office Excel was used the calculations were 100% audited. Concentrations were calculated using linear regression according to the following equation: […]
# Selectivity is defined as the ability of a chromatographic method to measure a response from the analyte without interference from the biological matrix. This was accomplished by evaluating six individual lots of human plasma prepared as blank and at the lower limit of quantitation (LLOQ, 0.500 ng/mL).
# The matrix effect is defined as the suppression or enhancement of ionization of analytes by the presence of matrix components in the biological samples. See, e.g., C. T. Viswanathan, “Quantitative Bioanalytical Methods Validation and Implementation: Best Practices for Chromatographic and Ligand Binding Assays,” Pharmaceutical Research, Vol. 24, No. 10, October 2007, p. 1969. The matrix effect was evaluated by extracting single replicates of six lots of blank human plasma and spiking each lot at the Low and High QC concentration levels (1.50 ng/mL and 375 ng/mL) post extraction. The area ratios of the six lots of post-extraction spiked plasma samples were compared to the mean area ratio obtained from three replicates of the neat solution prepared at the same concentration level in purified water.
# The linearity of the method was evaluated at a linear range of 0.500/0.500-500/500 ng/mL for ketamine/norketamine in human plasma. Linear regression (with a weighting factor of 1/x2) was used to produce the best fit for the concentration-detector response relationship for ketamine and norketamine in human plasma.
# The validation was conducted with a target LLOQ of 0.500 ng/mL for ketamine and norketamine in human plasma. To evaluate the sensitivity, six QC samples prepared at the LLOQ were analyzed during three individual batch runs as part of the intra-run and inter-run accuracy and precision for the method. The concentrations were calculated with the calibration curve.
# The intra-run and inter-run accuracy and precision of the method were investigated at four different QC concentration levels (0.500 ng/mL (LLOQ), 1.50 ng/mL, 80.0 ng/mL, and 375 ng/mL).
# Recoveries were calculated according to the following formula: […]
# To assess the reinjection reproducibility, an analyte batch containing a standard curve and QC samples was reinjected after being kept at room temperature for 161.5 hours.
# [2] = test system: PCG/RSC of adult female Sprague Dawley rats; details: 3 hours after a single intraperitoneal injection (Jevtovic-Todorovic 2000); cited from earlier work
# [3] = test system: subjects with MDD at imminent risk for suicide; details: double-blind phase; all randomized analysis set; N=36
# Excerpt: Among 68 randomized subjects, 66 were included in the safety analysis set (defined as receiving at least one dose of study medication in the double-blind phase). […] All safety subjects (N=66) were included in the intent-to-treat (ITT) analysis set (defined as receiving at least one dose of study medication during the double-blind phase and having both the baseline and the Day 1, 4-hour postdose evaluation for the MADRS total score). Forty-nine subjects were included in the safety (FU) analysis set (defined as all subjects who have at least 1 visit during the follow up phase).
# [4] = Pharmacokinetics of intranasal esketamine 28, 56, 84 mg in healthy subjects (Example 9); details: for AUClast / AUC∞ / Cmax / t1/2 / Metabolite/Parent Ratio AUClast / Metabolite/Parent Ratio AUC∞ / Metabolite/Parent Ratio Cmax: mean; for Tmax: median; for Metabolite/Parent Ratio AUClast / Metabolite/Parent Ratio AUC∞ / Metabolite/Parent Ratio Cmax: noresketamine to esketamine
# Experimental: This was an open-label, single-center study. The subjects were healthy Caucasian men and women, 20 to 55 years of age, inclusive. […] The solution consisted of:
# Pharmacokinetic blood samples for measurement of esketamine and noresketamine concentrations in plasma were collected from predose until up to 24 hours after each intranasal esketamine regimen on Day 1 of each period.
# Blood samples (4 mL each) for determination of esketamine and noresketamine plasma concentrations were collected into the appropriate collection tube (e.g., Vacutainer®) at timepoints 0.00, 0.12, 0.20, 0.37, 0.53, 0.67, 0.83, 1.00, 1.25, 1.50, 2.00, 3.00, 4.00, 6.00, 9.00, 12.00, 18.00, and 24.00 h. The total amount of blood to be drawn for clinical laboratory tests and PK evaluations is approximately 327 mL.
# Plasma samples were analyzed for esketamine and noresketamine concentrations using the validated, specific and sensitive liquid chromatography coupled to tandem mass spectrometry (LC-MS/MS) achiral method of Example 8.
# Serial PK blood samples (4 mL each) were collected for a 24-hour period from each subject (Periods 1, 2, and 3).
# The following key parameters of esketamine and noresketamine in plasma were calculated using noncompartmental methods and actual sampling times: Cmax, tmax, AUClast, AUC∞, t1/2,λ, and λz.
# MDD/TRD subjects = details: 52-week safety study in MDD/TRD subjects (Berman et al., 2011); cited from earlier work
# [5] = freeze (−20° C.)/thaw (ice-water bath)
# [6] = freeze (−20° C.)/thaw (room temperature)
# [7] = stock solutions at room temperature under white light
# [8] = noresketamine in plasma after intranasal esketamine 28 mg (Treatment A)
# [9] = noresketamine in plasma after intranasal esketamine 56 mg (Treatment B)
# [10] = noresketamine in plasma after intranasal esketamine 84 mg (Treatment C)
smiles,measurement,setting,value
"CNC1(c2ccccc2Cl)CCCCC1=O (racemic) [ketamine, reference compound]",QC sample freeze/thaw stability,[1]; [5],3 freeze (−20° C.)/thaw (ice-water bath) cycles
same,QC sample freeze/thaw stability,[1]; [6],3 freeze (−20° C.)/thaw (room temperature) cycles
same,QC sample long-term storage stability,[1],1552 days at −20 °C
same,QC sample bench-top stability,[1],68.5 hours at room temp
same,Stock solution stability (spike solutions),[1],610 days at −20 °C for ketamine/norketamine spike solutions
same,Processed sample stability,[1],146.5 hours at room temperature
same,Whole Blood Stability,[1],120 minutes at room temperature and in an ice-water bath (0-4° C.)
same,Stock solution stability,[1]; [7],6 h
same,Stock solution stability,[1]; stock solutions at −20° C.,15100 h
same,ED50-value for the induction of neuronal vacuolation in the PCG/RSC,[2],47.5 mg/kg body weight
CN[C@]1(c2ccccc2Cl)CCCCC1=O [Esketamine 84 mg],"Withdrawn: Adverse event, % of subjects",[3],(13.9%)
same,"Withdrawn: Adverse event, number of subjects",[3],5
same,"Withdrawn: Lack of Efficacy, % of subjects",[3],(2.8%)
same,"Withdrawn: Lack of Efficacy, number of subjects",[3],1
NC1(c2ccccc2Cl)CCCCC1=O (stereo not shown) [Norketamine],QC sample freeze/thaw stability,[1]; [5],3 freeze (−20° C.)/thaw (ice-water bath) cycles
same,QC sample freeze/thaw stability,[1]; [6],3 freeze (−20° C.)/thaw (room temperature) cycles
same,QC sample long-term storage stability,[1],1552 days at −20 °C
same,QC sample bench-top stability,[1],68.5 hours at room temp
same,Stock solution stability (spike solutions),[1],610 days at −20 °C for ketamine/norketamine spike solutions
same,Processed sample stability,[1],146.5 hours at room temperature
same,Whole Blood Stability,[1],120 minutes at room temperature and in an ice-water bath (0-4° C.)
same,Stock solution stability,[1]; [7],6 h
same,Stock solution stability,[1]; stock solutions at −20° C.,15100 h
NC1(c2ccccc2Cl)CCCCC1=O (stereo not shown) [noresketamine],"Mean ratio of noresketamine to esketamine, AUClast","[4]; 28, 56, 84 mg",3.62 to 4.32
same,"Mean ratio of noresketamine to esketamine, AUC∞","[4]; 28, 56, 84 mg",3.80 to 4.46
same,"Mean ratio of noresketamine to esketamine, Cmax","[4]; 28, 56, 84 mg",1.96 to 2.55
same,"Median tmax of noresketamine, range across regimens","[4]; healthy subjects, intranasal esketamine 28, 56, 84 mg",1.25 to 1.5 h
same,AUC (AUClast and AUC∞) variability,[4]; noresketamine in plasma,17.0% to 21.3
same,Between-subject variability for Cmax,[4]; noresketamine in plasma,25.8% to 33.7
same,AUClast,[4]; [8],454 ng·h/mL
same,AUC∞,[4]; [8],508 ng·h/mL
same,Cmax,[4]; [8],92.8 ng/mL
same,t1/2,[4]; [8],7.74 h
same,Tmax,[4]; [8],1.25 h
same,AUClast,[4]; [9],851 ng·h/mL
same,AUC∞,[4]; [9],924^c h*ng/mL
same,Cmax,[4]; [9],154 ng/mL
same,t1/2,[4]; [9],7.71^c h
same,Tmax,[4]; [9],1.50 h
same,AUClast,[4]; [10],1287 ng·h/mL
same,AUC∞,[4]; [10],1392^b h*ng/mL
same,Cmax,[4]; [10],241 ng/mL
same,t1/2,[4]; [10],7.48^b h
same,Tmax,[4]; [10],1.50 h
same,Metabolite/Parent Ratio AUClast,[4]; esketamine 28 mg (Treatment A),3.62
same,Metabolite/Parent Ratio AUC∞,[4]; esketamine 28 mg (Treatment A),3.80^b
same,Metabolite/Parent Ratio Cmax,[4]; esketamine 28 mg (Treatment A),1.96
same,Metabolite/Parent Ratio AUClast,[4]; esketamine 56 mg (Treatment B),4.07
same,Metabolite/Parent Ratio AUC∞,[4]; esketamine 56 mg (Treatment B),4.22^b
same,Metabolite/Parent Ratio Cmax,[4]; esketamine 56 mg (Treatment B),2.28
same,Metabolite/Parent Ratio AUClast,[4]; esketamine 84 mg (Treatment C),4.32
same,Metabolite/Parent Ratio AUC∞,[4]; esketamine 84 mg (Treatment C),4.46^d
same,Metabolite/Parent Ratio Cmax,[4]; esketamine 84 mg (Treatment C),2.55
same,"Mean t1/2, range across regimens","[4]; noresketamine, esketamine 28, 56, 84 mg",7.48 to 7.74 h
OCCOCCN1CCN(C2=Nc3ccccc3Sc3ccccc32)CC1 [quetiapine],Rate of discontinuation due to adverse events,MDD/TRD subjects,23.7%
